Assay results published in patent US20260272895A1, “METHODS AND KITS FOR DELIVERY OF COMPOUNDS INTO CELLS” (Yale University, priority 2023, published 2026).

Tested on: brain cell types
Experiment: In vivo two-photon imaging of mouse cortex after topical cortical administration of fluorophores
Outline: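 Wild-type mice were anesthetized with ketamine/xylazine (100 mg/kg and 10 mg/kg), the skull over the cortex was thinned and lifted, and the dura removed. Fluorescent dyes were applied topically to the cortical surface before a 4 mm cover glass was fixed in place. Cell-type-specific labeling was then imaged by two-photon microscopy with a 20× water immersion objective, up to 300 μm below the pia at 750 to 950 nm excitation.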

## O=S(=O)([O-])c1cc(S(=O)(=O)O)ccc1C1=c2cc3c4c(c2Oc2cc(Br)ccc21)CCC[N+]=4CCC3 [Compound 1, 2-(12-bromo-1,2,3,5,6,7-hexahydrochromeno[2,3-f]pyrido[3,2,1-ij]quinolin-4-ium-9-yl)-5-sulfobenzenesulfonate]
Cell type taking up the compound in vivo (Table 1)
  Target: Endothelial
Topical application to cortex
  labeling of other (non-endothelial) cell types: only endothelial cells are labeled
Topical cortical application
  endothelial cell labeling/uptake after topical application to the brain: Highly specific labeling of endothelial cells within capillaries

## COc1cc2c(c(OC)c1OC)-c1ccc(OC)c(=O)cc1C(NS(=O)(=O)c1ccc(-c3c4ccc(N(C)C)cc4[o+]c4cc(N(C)C)ccc34)c(S(=O)(=O)[O-])c1)CC2 (stereo not shown) [Compound 47, 2-(3,6-bis(dimethylamino)xanthylium-9-yl)-5-(N-(1,2,3,10-tetramethoxy-9-oxo-5,6,7,9-tetrahydrobenzo[a]heptalen-7-yl)sulfamoyl)benzenesulfonate]
Topical cortical administration, 50 μM, wild type mice
  cellular labeling in cortex: labeling of endothelial processes (arrow) and cell bodies (arrowhead)
